{
  "source": "patent US11180462B2",
  "about": "“Microbiocidal oxadiazole derivatives” (SYNGENTA PARTICIPATIONS AG, priority 2015, dated 2021)",
  "data": [
    {"test_system": "Glomerella lagenarium (Colletotrichum lagenarium)", "test": "Fungicidal activity against Glomerella lagenarium (Colletotrichum lagenarium) liquid culture / cucumber / preventative (anthracnose)", "assay_type": "cell-based", "conditions": "Colletotrichum orbiculare; 20 ppm in the applied formulation; liquid culture (PDB), growth inhibition measured photometrically after 3 to 4 days; compared to untreated control; read-out: disease control", "protocol": "Mycelia fragments or conidia suspensions of a fungus prepared either freshly from liquid cultures of the fungus or from cryogenic storage, are directly mixed into nutrient broth. DMSO solutions of the test compound (max. 10 mg/ml) are diluted with 0.025% Tween20 by a factor of 50 and 10 μl of this solution is pipetted into a microtiter plate (96-well format). The nutrient broth containing the fungal spores/mycelia fragments is then added to give an end concentration of the tested compound. The test plates are incubated in the dark at 24° C. and 96% relative humidity. The inhibition of fungal growth is determined photometrically after 2 to 7 days, depending on the pathosystem, and percent antifungal activity relative to the untreated check is calculated.\nFungicidal activity against Glomerella lagenarium (Colletotrichum lagenarium) liquid culture/cucumber/Preventative (Anthracnose)\nConidia of the fungus from cryogenic storage are directly mixed into nutrient broth (PDB—potato dextrose broth). After placing a (DMSO) solution of test compound into a microtiter plate (96-well format), the nutrient broth containing the fungal spores is added.\nThe following compounds at 20 ppm in the applied formulation give at least 80% disease control in this test when compared to untreated control under the same conditions, which show extensive disease development.", "units": {"inhibition of growth at 20 ppm": "%"}, "values": [
      {"compound": "CCCC(=O)N(Cc1ccc(-c2noc(C(F)(F)F)n2)cc1)OCc1ccc(Cl)cc1", "note": "[Compound 1.554, N-[(4-chlorophenyl)-methoxy]-N-[[4-[5-(trifluoromethyl)-1,2,4-oxadiazol-3-yl]phenyl]methyl]-butanamide]", "inhibition of growth at 20 ppm": "≥ 80"},
      {"compound": "CCCON(Cc1ccc(-c2noc(C(F)(F)F)n2)cc1)C(=O)C1=CCCC1", "note": "[Compound 1.291, N-propoxy-N-[[4-[5-(trifiuoromethyl)-1,2,4-oxadiazol-3-yl]phenyl]methyl]-cyclopentene-1-carboxamide]", "inhibition of growth at 20 ppm": "≥ 80"},
      {"compound": "C=CC(=O)N(CCOC)Cc1ccc(-c2noc(C(F)(F)F)n2)cc1", "note": "[Compound 1.343, N-(2-methoxyethyl)-N-[[4-[5-(trifluoromethyl)-1,2,4-oxadiazol-3-yl]phenyl]methyl]prop-2-enamide]", "inhibition of growth at 20 ppm": "≥ 80"},
      {"compound": "CCCON(Cc1ccc(-c2noc(C(F)(F)F)n2)cc1)C(=O)CC", "note": "[Compound 1.303, N-propoxy-N-[[4-[5-(trifluoromethyl)-1,2,4-oxadiazol-3-yl]phenyl]methyl]-propanamide]", "inhibition of growth at 20 ppm": "≥ 80"},
      {"compound": "CON(C(=O)CC(F)(F)F)C(C)c1ccc(-c2noc(C(F)(F)F)n2)cc1", "note": "(centres unmarked) [Compound 1.277, 3,3,3-trifluoro-N-methoxy-N-[1-[4-[5-(trifluoromethyl)-1,2,4-oxadiazol-3-yl]phenyl]ethyl]-propanamide]", "inhibition of growth at 20 ppm": "≥ 80"},
      {"compound": "CCC(C)N(Cc1ccc(-c2noc(C(F)(F)F)n2)cc1)C(=O)CC(C)C", "note": "(centres unmarked) [Compound 1.380, 3-methyl-N-sec-butyl-N-[[4-[5-(trifluoromethyl)-1,2,4-oxadiazol-3-yl]phenyl]methyl]-butanamide]", "inhibition of growth at 20 ppm": "≥ 80"},
      {"compound": "CCC1(C(=O)N(Cc2ccc(-c3noc(C(F)(F)F)n3)cc2)OC)C(C)C1(Cl)Cl", "note": "(centres unmarked) [Compound 1.61, 2,2-dichloro-1-ethyl-N-methoxy-3-methyl-N-[[4-[5-(trifluoromethyl)-1,2,4-oxadiazol-3-yl]phenyl]methyl]-cyclopropane-carboxamide]", "inhibition of growth at 20 ppm": "≥ 80"},
      {"compound": "O=C(C1OCCO1)N(Cc1ccc(-c2noc(C(F)(F)F)n2)cc1)OCc1ccc(Cl)cc1", "note": "[Compound 1.560, N-[(4-chlorophenyl)-methoxy]-N-[[4-[5-(trifluoromethyl)-1,2,4-oxadiazol-3-yl]phenyl]methyl]-1,3-dioxolane-2-carboxamide]", "inhibition of growth at 20 ppm": "≥ 80"},
      {"compound": "CCCCON(Cc1ccc(-c2noc(C(F)(F)F)n2)cc1)C(=O)C1CCC1", "note": "[Compound 1.638, N-butoxy-N-[[4-[5-(trifluoromethyl)-1,2,4-oxadiazol-3-yl]phenyl]methyl]-cyclobutane-carboxamide]", "inhibition of growth at 20 ppm": "≥ 80"},
      {"compound": "C#CC(=O)N(OC)C(C)c1ccc(-c2noc(C(F)(F)F)n2)cc1", "note": "(centres unmarked) [Compound 1.269, N-methoxy-N-[1-[4-[5-(trifluoromethyl)-1,2,4-oxadiazol-3-yl]phenyl]ethyl]prop-2-ynamide]", "inhibition of growth at 20 ppm": "≥ 80"},
      {"compound": "CON(Cc1ccc(-c2noc(C(F)(F)F)n2)cc1)C(=O)Cc1ccc(C(F)(F)F)cc1", "note": "[Compound 1.68, N-methoxy-N-[[4-[5-(trifluoromethyl)-1,2,4-oxadiazol-3-yl]phenyl]methyl]-2-[4-(trifluoromethyl)-phenyl]acetamide]", "inhibition of growth at 20 ppm": "≥ 80"},
      {"compound": "CCCON(Cc1ccc(-c2noc(C(F)(F)F)n2)cc1)C(=O)C1(C)CC1", "note": "[Compound 1.302, 1-methyl-N-propoxy-N-[[4-[5-(trifluoromethyl)-1,2,4-oxadiazol-3-yl]phenyl]methyl]-cyclopropane-carboxamide]", "inhibition of growth at 20 ppm": "≥ 80"},
      {"compound": "CCCCON(Cc1ccc(-c2noc(C(F)(F)F)n2)cc1)C(=O)C1CC1", "note": "[Compound 1.601, N-butoxy-N-[[4-[5-(trifluoromethyl)-1,2,4-oxadiazol-3-yl]phenyl]methyl]-cyclopropane-carboxamide]", "inhibition of growth at 20 ppm": "≥ 80"},
      {"compound": "CC1(C(=O)N(Cc2ccc(-c3noc(C(F)(F)F)n3)cc2)OCC=C(Cl)Cl)COC1", "note": "[Compound 1.544, N-(3,3-dichloroallyloxy)-3-methyl-N-[[4-[5-(trifluoromethyl)-1,2,4-oxadiazol-3-yl]phenyl]methyl]-oxetane-3-carboxamide]", "inhibition of growth at 20 ppm": "≥ 80"},
      {"compound": "CON(C(=O)CC1CC1)C(C)c1ccc(-c2noc(C(F)(F)F)n2)cc1", "note": "(centres unmarked) [Compound 1.256, 2-cyclopropyl-N-methoxy-N-[1-[4-[5-(trifluoromethyl)-1,2,4-oxadiazol-3-yl]phenyl]ethyl]-acetamide]", "inhibition of growth at 20 ppm": "≥ 80"},
      {"compound": "O=C(Cc1ccccc1)N(Cc1ccc(-c2noc(C(F)(F)F)n2)cc1)CC1CC1", "note": "[Compound 1.228, N-(cyclopropylmethyl)-2-phenyl-N-[[4-[5-(trifluoromethyl)-1,2,4-oxadiazol-3-yl]phenyl]methyl]-acetamide]", "inhibition of growth at 20 ppm": "≥ 80"},
      {"compound": "CCCON(Cc1ccc(-c2noc(C(F)(F)F)n2)cc1)C(=O)COCC", "note": "[Compound 1.297, 2-ethoxy-N-propoxy-N-[[4-[5-(trifluoromethyl)-1,2.4-oxadiazol-3-yl]phenyl]methyl]-acetamide]", "inhibition of growth at 20 ppm": "≥ 80"},
      {"compound": "COCCC(=O)N(Cc1ccc(-c2noc(C(F)(F)F)n2)cc1)OCC=C(Cl)Cl", "note": "[Compound 1.533, N-(3,3-dichloroallyloxy)-3-methoxy-N-[[4-[5-(trifluoromethyl)-1,2,4-oxadiazol-3-yl]phenyl]methyl]-propanamide]", "inhibition of growth at 20 ppm": "≥ 80"},
      {"compound": "CCCON(Cc1ccc(-c2noc(C(F)(F)F)n2)cc1)C(=O)CCC", "note": "[Compound 1.288, N-propoxy-N-[[4-[5-(trifluoromethyl)-1,2,4-oxadiazol-3-yl]phenyl]methyl]-butanamide]", "inhibition of growth at 20 ppm": "≥ 80"},
      {"compound": "CCC(CC(=O)N(Cc1ccc(-c2noc(C(F)(F)F)n2)cc1)C1CC1)C(F)(F)F", "note": "(centres unmarked) [Compound 1.148, N-cyclopropyl-3-(trifluoromethyl)-N-[[4-[5-(trifluoromethyl)-1,2,4-oxadiazol-3-yl]phenyl]methyl]-pentanamide]", "inhibition of growth at 20 ppm": "≥ 80"},
      {"compound": "N#Cc1ccc(CC(=O)N(Cc2ccc(-c3noc(C(F)(F)F)n3)cc2)CC2CC2)cc1", "note": "[Compound 1.236, 2-(4-cyanophenyl)-N-(cyclopropylmethyl)-N-[[4-[5-(trifluoromethyl)-1,2,4-oxadiazol-3-yl]phenyl]methyl]-acetamide]", "inhibition of growth at 20 ppm": "≥ 80"},
      {"compound": "CCCON(Cc1ccc(-c2noc(C(F)(F)F)n2)cc1)C(=O)C1CC1C", "note": "(centres unmarked) [Compound 1.299, 2-methyl-N-propoxy-N-[[4-[5-(trifluoromethyl)-1,2,4-oxadiazol-3-yl]phenyl]methyl]-cyclopropane-carboxamide]", "inhibition of growth at 20 ppm": "≥ 80"},
      {"compound": "CC=CC(=O)N(Cc1ccc(-c2noc(C(F)(F)F)n2)cc1)OCCC", "note": "[Compound 1.285, N-propoxy-N-[[4-[5-(trifluoromethyl)-1,2,4-oxadiazol-3-yl]phenyl]methyl]but-2-enamide]", "inhibition of growth at 20 ppm": "≥ 80"},
      {"compound": "O=C(CCl)N(Cc1ccc(-c2noc(C(F)(F)F)n2)cc1)OCC=C(Cl)Cl", "note": "[Compound 1.538, 2-chloro-N-(3,3-dichloroallyloxy)-N-[[4-[5-(trifluoromethyl)-1,2,4-oxadiazol-3-yl]phenyl]methyl]-acetamide]", "inhibition of growth at 20 ppm": "≥ 80"},
      {"compound": "C=CC(=O)N(Cc1ccc(-c2noc(C(F)(F)F)n2)cc1)OCCC", "note": "[Compound 1.301, N-propoxy-N-[[4-[5-(trifluoromethyl)-1,2,4-oxadiazol-3-yl]phenyl]methyl]-prop-2-enamide]", "inhibition of growth at 20 ppm": "≥ 80"},
      {"compound": "CCCCON(Cc1ccc(-c2noc(C(F)(F)F)n2)cc1)C(=O)CC", "note": "[Compound 1.588, N-butoxy-N-[[4-[5-(trifluoromethyl)-1,2,4-oxadiazol-3-yl]phenyl]methyl]-propanamide]", "inhibition of growth at 20 ppm": "≥ 80"},
      {"compound": "CON(Cc1ccc(-c2noc(C(F)(F)F)n2)cc1)C(=O)c1cc2c(cc1Br)OCO2", "note": "[Compound 1.55, 6-bromo-N-methoxy-N-[[4-[5-(trifluoromethyl)-1,2,4-oxadiazol-3-yl]phenyl]methyl]-1,3-benzoxlioxole-5-carboxamide]", "inhibition of growth at 20 ppm": "≥ 80"},
      {"compound": "CCCC(=O)N(Cc1ccc(-c2noc(C(F)(F)F)n2)cc1)OCC=C(Cl)Cl", "note": "[Compound 1.541, N-(3,3-dichloroallyloxy)-N-[[4-[5-(trifluoromethyl)-1,2,4-oxadiazol-3-yl]phenyl]methyl]-butanamide]", "inhibition of growth at 20 ppm": "≥ 80"},
      {"compound": "CC(=O)C=CC(=O)N(Cc1ccc(-c2noc(C(F)(F)F)n2)cc1)CC1CCCO1", "note": "(centres unmarked) [Compound 1.439, 4-oxo-N-(tetrahydrofuran-2-ylmethyl)-N-[[4-[5-(trifluoromethyl)-1,2,4-oxadiazol-3-yl]phenyl]methyl]-pent-2-enamide]", "inhibition of growth at 20 ppm": "≥ 80"},
      {"compound": "O=C(N(Cc1ccc(-c2noc(C(F)(F)F)n2)cc1)C1CC1)C1(c2ccccc2)CC1", "note": "[Compound 1.96, N-cyclopropyl-1-phenyl-N-[[4-[5-(trifluoromethyl)-1,2,4-oxadiazol-3-yl]phenyl]methyl]-cyclopropane-carboxamide]", "inhibition of growth at 20 ppm": "≥ 80"},
      {"compound": "CCCON(Cc1ccc(-c2noc(C(F)(F)F)n2)cc1)C(=O)C1(F)CC1", "note": "[Compound 1.307, 1-fluoro-N-propoxy-N-[[4-[5-(trifluoromethyl)-1,2,4-oxadiazol-3-yl]phenyl]methyl]-cyclopropane-carboxamide]", "inhibition of growth at 20 ppm": "≥ 80"},
      {"compound": "CCCON(Cc1ccc(-c2noc(C(F)(F)F)n2)cc1)C(=O)CC1CC1", "note": "[Compound 1.289, 2-cyclopropyl-N-propoxy-N-[[4-[5-(trifluoromethyl)-1,2,4-oxadiazol-3-yl]phenyl]methyl]-acetamide]", "inhibition of growth at 20 ppm": "≥ 80"}
    ]}
  ]
}
